Data taken from PubChem BioAssay AID248 (DTP/NCI, 2004).
Inconclusive results and toxic doses are left out. Cut-off read from the data, not from the text of the source: active = T/C of 150% or more; inactive = T/C below 125%.

Test system: L1210 leukemia ip in BDF1 mice, survival T/C
Experiment: NCI In Vivo Anticancer Drug Screen. Data for tumor model L1210 Leukemia (intraperitoneal) in B6D2F1 (BDF1) mice
Conditions: endpoint: mean survival time, higher = longer survival
Procedure, shortened: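 Tumor was transplanted into mice, which were then dosed with test compound or vehicle alone. Survival was recorded for each group, and the treated figure was expressed relative to the control figure.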

[1] = dose: 100.0 mg/kg/injection, schedule: Q01DX001 (ip), vehicle: Klucel (hydroxypropylcellulose) (HPC)
[2] = dose: 200.0 mg/kg/injection, schedule: Q01DX001 (ip), vehicle: Klucel (hydroxypropylcellulose) (HPC)
[3] = dose: 400.0 mg/kg/injection, schedule: Q01DX001 (ip), vehicle: Klucel (hydroxypropylcellulose) (HPC)
[4] = dose: 100.0 mg/kg/injection, schedule: Q01DX009 (ip), vehicle: Klucel (hydroxypropylcellulose) (HPC)
[5] = dose: 100.0 mg/kg/injection, schedule: Q04DX003 (ip), vehicle: Klucel (hydroxypropylcellulose) (HPC)
[6] = dose: 200.0 mg/kg/injection, schedule: Q01DX009 (ip), vehicle: Klucel (hydroxypropylcellulose) (HPC)
[7] = dose: 200.0 mg/kg/injection, schedule: Q04DX003 (ip), vehicle: Klucel (hydroxypropylcellulose) (HPC)
[8] = dose: 400.0 mg/kg/injection, schedule: Q01DX009 (ip), vehicle: Klucel (hydroxypropylcellulose) (HPC)
[9] = dose: 400.0 mg/kg/injection, schedule: Q04DX003 (ip), vehicle: Klucel (hydroxypropylcellulose) (HPC)
[10] = dose: 100.0 mg/kg/injection, schedule: Q04DX002 (ip), vehicle: Klucel (hydroxypropylcellulose) (HPC)
[11] = dose: 200.0 mg/kg/injection, schedule: Q04DX002 (ip), vehicle: Klucel (hydroxypropylcellulose) (HPC)
[12] = dose: 400.0 mg/kg/injection, schedule: Q04DX002 (ip), vehicle: Klucel (hydroxypropylcellulose) (HPC)
[13] = dose: 50.0 mg/kg/injection, schedule: Q01DX009 (ip), vehicle: Klucel (hydroxypropylcellulose) (HPC)
[14] = dose: 50.0 mg/kg/injection, schedule: Q01DX009 (ip), vehicle: saline
[15] = dose: 100.0 mg/kg/injection, schedule: Q01DX009 (ip), vehicle: saline
[16] = dose: 200.0 mg/kg/injection, schedule: Q01DX009 (ip), vehicle: saline
[17] = dose: 100.0 mg/kg/injection, schedule: Q01DX001 (ip), vehicle: saline
[18] = dose: 200.0 mg/kg/injection, schedule: Q01DX001 (ip), vehicle: saline
[19] = dose: 100.0 mg/kg/injection, schedule: Q04DX003 (ip), vehicle: saline with Tween-80
[20] = dose: 200.0 mg/kg/injection, schedule: Q04DX003 (ip), vehicle: saline with Tween-80
[21] = dose: 400.0 mg/kg/injection, schedule: Q04DX003 (ip), vehicle: saline with Tween-80
[22] = dose: 100.0 mg/kg/injection, schedule: Q01DX001 (ip), vehicle: carboxymethylcellulose (CMC)
[23] = dose: 200.0 mg/kg/injection, schedule: Q01DX001 (ip), vehicle: carboxymethylcellulose (CMC)
[24] = dose: 400.0 mg/kg/injection, schedule: Q01DX001 (ip), vehicle: carboxymethylcellulose (CMC)

Measured: T/C

Nc1nc(-c2ccc(O)cc2)nc2[nH]ncc12
inactive: [1] 91 % of control | [2] 100 % of control | [3] 94 % of control

O=C(Nc1ccc(F)cc1)C(c1ccccc1)c1ccccc1
inactive: [4] 108 % of control | [5] 90 % of control | [6] 101 % of control | [7] 93 % of control | [8] 95 % of control | [9] 88 % of control

C=C(C)COc1ccc(Nc2ccccc2)cc1
inactive: [1] 92 % of control | [2] 95 % of control | [3] 89 % of control

CC(CC#N)OC(=O)c1cccc([N+](=O)[O-])c1 (stereo not drawn)
inactive: [4] 91 % of control | [5] 115 % of control | [6] 93 % of control | [7] 93 % of control | [8] 98 % of control | [9] 105 % of control

CCOC(=O)c1nnn(-c2cccnc2)c1-c1ccc([N+](=O)[O-])cc1
inactive: [10] 111 % of control | [11] 101 % of control | [12] 105 % of control

NC(=O)c1ncc[nH]c1=O
inactive: [13] 94 % of control | [14] 97 % of control | [4] 97 % of control | [15] 103 % of control | [5] 97 % of control | [6] 105 % of control | [16] 90 % of control | [7] 95 % of control | [9] 100 % of control

O=C1N2CCOC2=NC1(c1ccccc1)c1ccccc1
inactive: [14] 111 % of control | dose: 100.0 mg/kg/injection, schedule: Q04DX003 (ip), vehicle: saline 94 % of control | dose: 200.0 mg/kg/injection, schedule: Q04DX003 (ip), vehicle: saline 103 % of control

COc1ccc(COC(=O)c2cc([N+](=O)[O-])cc([N+](=O)[O-])c2)cc1
inactive: dose: 100.0 mg/kg/injection, schedule: Q01DX001 (ip), vehicle: saline with Tween-80 95 % of control | dose: 200.0 mg/kg/injection, schedule: Q01DX001 (ip), vehicle: saline with Tween-80 100 % of control | dose: 400.0 mg/kg/injection, schedule: Q01DX001 (ip), vehicle: saline with Tween-80 92 % of control

O=C(O)c1cccc(F)c1O
inactive: [17] 97 % of control | [18] 97 % of control

Cc1c(N)c(C)c([N+](=O)[O-])c(C)c1N
inactive: [19] 91 % of control | [20] 98 % of control | [21] 98 % of control

O=C1CCC(OC(=O)c2ccccc2)CCN1 (stereo not drawn)
inactive: dose: 100.0 mg/kg/injection, schedule: Q01DX001 (ip), vehicle: acetone 102 % of control | dose: 200.0 mg/kg/injection, schedule: Q01DX001 (ip), vehicle: acetone 96 % of control | dose: 400.0 mg/kg/injection, schedule: Q01DX001 (ip), vehicle: acetone 94 % of control

Nc1nc2nc[nH]c2c(Cl)c1Br
inactive: [10] 104 % of control | [11] 115 % of control

Nc1cccc2cccc([N+](=O)[O-])c12
inactive: [22] 100 % of control | [15] 87 % of control | [23] 94 % of control | [16] 94 % of control | [24] 96 % of control

CCc1cccc(CC)c1NC(=O)CS
inactive: [19] 94 % of control | [20] 95 % of control

Cc1ccc(S(=O)(=O)OCC2C(COS(=O)(=O)c3ccc(C)cc3)C3C4C5C2C2C3C4C52)cc1 (stereo not drawn)
inactive: [10] 98 % of control | [11] 90 % of control | [12] 94 % of control

CCOC(=O)c1ccnc2ccc(O)cc12
inactive: [19] 104 % of control | [20] 96 % of control | [21] 95 % of control

O=C(Nc1ccccc1Cl)Nc1cccc2ccccc12
inactive: [10] 105 % of control | [11] 102 % of control | [12] 98 % of control

COc1ccc(C(=O)/C=C/c2cccc3ccccc23)cc1
inactive: dose: 100.0 mg/kg/injection, schedule: Q04DX002 (ip), vehicle: saline with Tween-80 86 % of control | dose: 200.0 mg/kg/injection, schedule: Q04DX002 (ip), vehicle: saline with Tween-80 86 % of control | dose: 400.0 mg/kg/injection, schedule: Q04DX002 (ip), vehicle: saline with Tween-80 86 % of control

Cc1ccc(S(=O)(=O)NN=C2CCCCC2)cc1
inactive: dose: 75.0 mg/kg/injection, schedule: Q01DX001 (ip), vehicle: saline 90 % of control | dose: 150.0 mg/kg/injection, schedule: Q01DX001 (ip), vehicle: saline 90 % of control | dose: 300.0 mg/kg/injection, schedule: Q01DX001 (ip), vehicle: saline 90 % of control

CCOP(=O)(OCC)N1C(C)C1c1ccccc1 (stereo not drawn)
inactive: dose: 25.0 mg/kg/injection, schedule: Q04DX003 (sc), vehicle: carboxymethylcellulose (CMC) 100 % of control | dose: 50.0 mg/kg/injection, schedule: Q04DX003 (sc), vehicle: carboxymethylcellulose (CMC) 104 % of control | dose: 100.0 mg/kg/injection, schedule: Q04DX003 (sc), vehicle: carboxymethylcellulose (CMC) 112 % of control

Cc1ccccc1OB(Oc1ccccc1C)Oc1ccccc1C
inactive: [17] 101 % of control | [18] 109 % of control | dose: 400.0 mg/kg/injection, schedule: Q01DX001 (ip), vehicle: saline 95 % of control

COc1ccc(N=O)c(O)c1
inactive: dose: 25.0 mg/kg/injection, schedule: Q01DX009 (ip), vehicle: Klucel (hydroxypropylcellulose) (HPC) 104 % of control | dose: 50.0 mg/kg/injection, schedule: Q01DX001 (ip), vehicle: carboxymethylcellulose (CMC) 93 % of control | [13] 103 % of control | [22] 97 % of control | [4] 106 % of control | [23] 104 % of control | [24] 101 % of control

Oc1ccc2ccccc2c1C(c1ccccc1)N1CCCCC1 (stereo not drawn)
inactive: [1] 94 % of control | [2] 97 % of control | [3] 103 % of control

C[CH2][Sn]([Cl])([CH2]C)[O][Sn]([Cl])([CH2]C)[CH2]C
inactive: dose: 3.12 mg/kg/injection, schedule: Q04DX003 (ip), vehicle: saline with Tween-80 100 % of control | dose: 6.25 mg/kg/injection, schedule: Q04DX003 (ip), vehicle: saline with Tween-80 100 % of control | dose: 12.5 mg/kg/injection, schedule: Q04DX003 (ip), vehicle: saline with Tween-80 106 % of control

CC1(C)c2ccccc2Nc2ccccc21
inactive: dose: 100.0 mg/kg/injection, schedule: Q01DX009 (ip), vehicle: saline with Tween-80 86 % of control | [19] 97 % of control | dose: 200.0 mg/kg/injection, schedule: Q01DX009 (ip), vehicle: saline with Tween-80 89 % of control | [20] 101 % of control | dose: 400.0 mg/kg/injection, schedule: Q01DX009 (ip), vehicle: saline with Tween-80 89 % of control | [21] 98 % of control
